# According to article PMC8752738, “A propolis-derived small molecule ameliorates metabolic syndrome in obese mice by targeting the CREB/CRTC2 transcriptional complex” (Nature Communications, 2022):
# Where “and” joins values, the source holds several entries; their conditions need not be identical. Equal entries are not always repeated.
# Legend:
# [1] = molecular target: T1, CREB / CRTC3 interaction (Homo sapiens, UniProt P16220); test: Co-immunoprecipitation of GFP-CRTC3 by MYC-CREB, HEK293T; assay type: cell-based; conditions: overexpression HEK293T cells, APC 10 μM
# T1 construct: expressed in transfected cells; host or cells: HEK293T
# Experimental: 1 Supplementary Figure 2.
# 2 a) Immunoblot of HA-P300 recovered from HEK293T cell lysate using GST-CREB beads. APC
# 3 (10 μM) was incubated with cells for 1-h before FKS (10 nM) stimulation and was included in the
# 4 following pull-down mixtures (n=3). One of two independent experiments presented here.
# 5 b) Immunoblot for recovered GFP-CRTC1 or (c) GFP-CRTC3 immunoprecipitated by MYC-CREB
# 6 from overexpression HEK293T cell line. APC (10 μM) was incubated with cells for 1-h before FKS
# 7 (10 nM) stimulation and was included in the following pull-down mixtures. One of two independent
# 8 experiments presented here.
# 9 d) SPR sonogram traces of APC binding with HIS-CREB proteins immobilized to NTA-chip. The
# 10 concentration series of APC was as indicated.
# 11 e) SPR sonogram traces of APC flowing through HIS-CRTC2-S171A proteins immobilized on
# 12 NTA-chip. The concentration of APC was as indicated.
# 13 f) The luciferase enzymatic activity of HEK293T incubated with APC. Cells over-expressed
# 14 luciferase CRE-Luc reporter and were stimulated by FSK (10 nM) for 5-h before lysis, which was
# 15 then incubated with APC (concentration indicated) for 30 min before luciferase activity determination
# 16 (n=3 per treatment). Data are represented as mean ± SEM. *, p < 0.05; **, p < 0.01; p values were
# 17 determined by one-way ANOVA followed Dunnett’s multiple comparisons test. […]
# [2] = test system: tissue protein levels; test: Immunoblotting of tissue proteins in treated mice; assay type: in vivo, mouse; conditions: for Relative LXRa/ACTIN, Mean Diff. (VEH vs. treated) / Relative LXRa/ACTIN, Mean 2 (group mean) / Relative LXRa/ACTIN: Figure 7h; for Relative LXRa/ACTIN, Mean 2 (group mean): N2 = 4; for Relative LXRa/ACTIN: single replicates
# Experimental: Immunoblotting and immunoprecipitation assays were performed as previously described, with antibodies recognizing CREB, Ser133-P-CREB, AMPK, P-AMPK, AKT, P-AKT (Cell Signaling), PGC-1α (Merck), CRTC2 (Calbiochem), PCK1 (Santa Cruz), SREBP1 (Santa Cruz), SREBP2 (BD), HA (Convance), LXRα (Santa Cruz), FLAG (Sigma), GST (Covance), HIS (Abmart), GAPDH (AOGMA), α-TUBULIN (Abmart), β-ACTIN (Abmart), and other antibodies (Supplementary Table 3). For immunostaining assays, primary cultured hepatocytes seeded on coverslips were fixed with 4% paraformaldehyde for 20 min, permeabilized with 0.3% Triton X-100 in PBS, and then blocked by 5% normal goat serum and 0.3% Triton X-100 in PBS, followed by incubation with anti-CREB (1:1000), anti-P-CREB (1:1000), or anti-HA (1:3000) antibodies for 1 h at 4 °C. Slides were then washed, and after washing, slides were incubated with fluorochrome-conjugated secondary antibodies (Invitrogen). Slides were then washed and mounted with Vectashield mounting media containing 4, 6-diamidino-2-phenylindole (DAPI).
# [3] = Figure 6b right, N=4, VEH mean 1
# [4] = Figure 6b right, individual animals, relative to VEH
# [5] = Figure 8c, relative protein in DIO liver, individual samples
# [6] = db/db mice, liver, group mean, N=3, VEH mean 1
# [7] = db/db mice, liver, individual mouse
# [8] = liver of DIO mice, individual samples, n=3
# [9] = liver, CRTC2KO mice, drug minus VEH
# [10] = liver, WT mice, group mean, N=4
# T1 sequence (P16220 whole entry): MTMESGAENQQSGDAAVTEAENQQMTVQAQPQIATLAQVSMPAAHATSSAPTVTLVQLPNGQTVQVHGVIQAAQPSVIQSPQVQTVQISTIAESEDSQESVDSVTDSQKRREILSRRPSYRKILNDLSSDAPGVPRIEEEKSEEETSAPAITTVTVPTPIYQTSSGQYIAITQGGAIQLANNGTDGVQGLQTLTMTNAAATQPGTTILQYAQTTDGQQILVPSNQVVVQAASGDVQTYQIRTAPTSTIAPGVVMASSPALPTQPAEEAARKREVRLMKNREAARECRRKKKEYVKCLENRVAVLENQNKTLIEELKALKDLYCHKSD
smiles,measurement,setting,value
"CC(C)=CCc1cc(C=CC(=O)O)cc(CC=C(C)C)c1O [APC, 3,5-diprenyl-4-hydroxycinnamic acid]",interaction of CREB and CRTC3,[1],attenuated
same,hepatic protein levels of PCK1 and PGC-1α,[2]; DIO and db/db mice,decreased
same,accumulation of mature SREBP proteins in the liver,[2]; DIO mice,reducing
same,protein levels of LXRα and SREBP1 in the liver,[2]; DIO mice,decreased
same,"SREBP1/GAPDH, Predicted (LS) mean",[2]; [3],0.3097
same,"SREBP2/GAPDH, Predicted (LS) mean",[2]; [3],0.1841
same,Relative SREBP1/2 protein levels: SREBP1/GAPDH,[2]; [4],0.2289 and 0.468 and 0.339 and 0.2027
same,Relative SREBP1/2 protein levels: SREBP2/GAPDH,[2]; [4],0.3721 and 0.1919 and 0.1184 and 0.05422
same,"PGC1a/GAPDH density, mean","[2]; Figure 8c, DIO liver, group mean, N=3, Ctrl mean 1",0.5994
same,"PCK1/GAPDH density, mean","[2]; Figure 8c, DIO liver, group mean, N=3, Ctrl mean 1.007",0.6998
same,Relative PGC1a/GAPDH density,[2]; [5],0.6916 and 0.563 and 0.5437
same,relative PCK1/GAPDH density,[2]; [5],0.6644 and 0.7152 and 0.7198
same,"Relative LXRa/ACTIN, Mean Diff. (VEH vs. treated)",[2]; CRTC2KO,0.1178
same,"Relative LXRa/ACTIN, Mean 2 (group mean)",[2]; CRTC2KO,0.6864
same,Relative LXRa/ACTIN,[2]; CT2KO,0.6612 and 0.7951 and 0.6751 and 0.6141
same,"Relative LXRa/ACTIN, Mean Diff. (VEH vs. treated)",[2]; WT,0.3705
same,"Relative LXRa/ACTIN, Mean 2 (group mean)",[2]; WT,0.525
same,Relative LXRa/ACTIN,[2]; WT,0.572 and 0.5732 and 0.4815 and 0.4734
same,"Relative PCK1/TUBLIN in db/db liver, mean",[2]; [6],0.4585 folds
same,"Relative PGC1a/TUBLIN in db/db liver, mean",[2]; [6],0.2953 folds
same,"Relative proteins in the liver of db/db mice, PCK1/TUBLIN",[2]; [7],0.5197 folds and 0.4980 folds and 0.3577 folds
same,"Relative proteins in the liver of db/db mice, PGC1a/TUBLIN",[2]; [7],0.2725 folds and 0.3156 folds and 0.2979 folds
same,relative protein levels in liver of DIO: LXRa/GAPDH,[2]; [8],0.741 and 0.777 and 0.8147
same,relative protein levels in liver of DIO: PPARa/GAPDH,[2]; [8],0.924 and 0.9 and 0.98
same,relative protein levels in liver of DIO: SREBP1/GAPDH,[2]; [8],0.391 and 0.515 and 0.283
same,"relative protein levels in liver of DIO: LXRa, group mean (Mean 1)","[2]; liver of DIO mice, mean of N=3",0.7776
same,"relative protein levels in liver of DIO: PPARa, group mean (Mean 1)","[2]; liver of DIO mice, mean of N=3",0.9347
same,"relative protein levels in liver of DIO: SREBP1, group mean (Mean 1)","[2]; liver of DIO mice, mean of N=3",0.3963
same,"SREBP1/ACT IN CT2KO, Mean Diff. vs. VEH",[2]; [9],-0.1371
same,"SREBP2/ACT IN CT2KO, Mean Diff. vs. VEH",[2]; [9],-0.0958
same,"SREBP1/ACT IN CT2KO, mean","[2]; liver, CRTC2KO mice, group mean, N=4",0.5503
same,SREBP1/ACT IN CT2KO (related SREBP1 protein levels in CRTC2KO liver),"[2]; liver, CRTC2KO mice, individual replicates, Supp.fig.5a left",0.5592 and 0.5689 and 0.5793 and 0.4937
same,SREBP2/ACT IN CT2KO (related SREBP2 protein levels in CRTC2KO liver),"[2]; liver, CRTC2KO mice, individual replicates, Supp.fig.5a right",0.6411 and 0.5673 and 0.6822 and 0.6938
same,"SREBP1/ACT IN WT, Mean Diff. vs. VEH","[2]; liver, WT mice, drug minus VEH",-0.2945
same,"SREBP2/ACT IN WT, Mean Diff. vs. VEH","[2]; liver, WT mice, drug minus VEH",-0.4593
same,"SREBP1/ACT IN WT, mean",[2]; [10],0.6687
same,"SREBP2/ACT IN WT, mean",[2]; [10],0.5653
same,SREBP1/ACT IN WT (related SREBP1 protein levels in liver),"[2]; liver, WT mice, individual replicates, Supp.fig.5a left",0.6865 and 0.5728 and 0.728 and 0.6877
same,SREBP2/ACT IN WT (related SREBP2 protein levels in liver),"[2]; liver, WT mice, individual replicates, Supp.fig.5a right",0.6071 and 0.5991 and 0.5115 and 0.5437
same,"phosphorylated AKT in liver, muscle, brown and white adipose tissues",[2]; treated obese mice,enhanced
